Test results taken from ChEMBL document CHEMBL1150051, “Antiviral (RNA) activity of selected Amaryllidaceae isoquinoline constituents and synthesis of related substances” (J Nat Prod, 1992).
Values after ≈ are worked out from the molar mass of the structure shown.

Assays:
[1] = Therapeutic index, ratio of TC50 for african green monkey Vero cells to IC50 for Punta toro virus Adames; type: cell-based; conditions: read-out: TI
[2] = Therapeutic index, ratio of TC50 for african green monkey Vero cells to IC50 for Japanese encephalitis virus Nakayama; type: cell-based; conditions: read-out: TI
[3] = Therapeutic index, ratio of TC50 for african green monkey Vero cells to IC50 for Yellow fever virus Ashibi; type: cell-based; conditions: read-out: TI
Rift Valley fever virus = assay: Antiviral activity against Rift Valley fever virus infected in african green monkey Vero cells after 6 days by plaque reduction assay; type: functional, organism-based
[4] = tested on: Sandfly fever Sicilian virus; assay: Antiviral activity against Sandfly fever sicilian virus infected in african green monkey Vero cells assessed as inhibition of virus-induced cytopathic effect by MTT assay; type: functional, organism-based
Yellow fever virus = assay: Antiviral activity against Yellow fever virus Ashibi infected in african green monkey Vero cells assessed as inhibition of virus-induced cytopathic effect by MTT assay; type: functional, organism-based
Punta Toro virus = assay: Antiviral activity against Punta Toro virus Adames infected in african green monkey Vero cells assessed as inhibition of virus-induced cytopathic effect by MTT assay; type: functional, organism-based
[5] = Therapeutic index, ratio of TC50 for african green monkey Vero cells to IC50 for Dengue type 4 virus; type: cell-based; conditions: read-out: TI
[6] = tested on: Japanese encephalitis virus; assay: Antiviral activity against Japanese encephalitis virus Nakayama infected in african green monkey Vero cells assessed as inhibition of virus-induced cytopathic effect by MTT assay; type: functional, organism-based
[7] = Therapeutic index, ratio of TC50 for african green monkey Vero cells to IC50 for Rift valley fever virus; type: cell-based; conditions: read-out: TI
dengue virus type 4 = assay: Antiviral activity against Dengue virus type 4 infected in african green monkey Vero cells after 6 days by plaque reduction assay; type: functional, organism-based
[8] = Therapeutic index, ratio of TC50 for african green monkey Vero cells to IC50 for Sandfly fever sicilian virus; type: cell-based; conditions: read-out: TI
[9] = Rift Valley fever virus, Vero, 144 h, read-out: IC50
[10] = Yellow fever virus, Ashibi, Vero, read-out: IC50
[11] = Punta Toro virus, Adames, Vero, read-out: IC50
[12] = Japanese encephalitis virus, Nakayama, Vero, read-out: IC50
[13] = Dengue virus, Vero, 144 h, read-out: IC50
[14] = sandfly fever Sicilian virus, Vero, read-out: IC50

SMILES	selectivity ratio [1]	selectivity ratio [2]	selectivity ratio [3]	IC50 (Rift Valley fever virus; [9]) [µg/mL]	IC50 ([4]; vero)	IC50 (Yellow fever virus; [10]) [µg/mL]	IC50 (Punta Toro virus; [11]) [µg/mL]	selectivity ratio [5]	IC50 [6, 12] [µg/mL]	selectivity ratio [7]	IC50 (dengue virus type 4; [13]) [µg/mL]	IC50 (Rift Valley fever virus; vero)	IC50 (Yellow fever virus; vero)	IC50 (Punta Toro virus; vero)	IC50 ([6]; vero)	IC50 [4, 14] [µg/mL]	selectivity ratio [8]	inhibition (INH) [4] [%]	IC50 (dengue virus type 4; vero)	inhibition (INH) (Yellow fever virus) [%]
O=c1[nH]c2c(c3cc4c(c(O)c13)OCO4)C[C@H](O)[C@@H](O)[C@H]2O [ISONARCICLASINE]	5.1	2.1	4.1	3.3 (≈ 10.7 µM)	Not Active	0.22 (≈ 0.716 µM)	0.28 (≈ 0.911 µM)	18.5	0.72 (≈ 2.34 µM)	7.6	0.27 (≈ 0.879 µM)	–	–	–	–	–	–	–	–	–
O=C1N[C@H]2C[C@@H](O)[C@@H](O)[C@H](O)[C@@H]2c2cc3c(cc21)OCO3	–	–	–	–	Not Active	–	–	–	–	–	–	Not Active	Not Active	Not Active	Not Active	–	–	–	–	–
CO[C@@H]1C=C[C@@]23c4cc5c(cc4C(O)O[C@H]2CN(C)[C@H]3C1)OCO5 (stereo partly specified) [PRETAZETTINE]	3.7	3.8	5.6	2.9 (≈ 8.75 µM)	–	0.5 (≈ 1.51 µM)	0.61 (≈ 1.84 µM)	–	0.6 (≈ 1.81 µM)	3.5	–	–	–	–	–	0.82 (≈ 2.47 µM)	3	–	–	–
COc1cc2c(cc1O)[C@@H]1[C@H](O)[C@@H](O)C=C3CCN(C2)[C@H]31 [PSEUDOLYCORINE]	3.9	5	3.7	0.63 (≈ 2.18 µM)	Not Active	0.35 (≈ 1.21 µM)	0.6 (≈ 2.07 µM)	2.6	0.28 (≈ 0.968 µM)	6	0.39 (≈ 1.35 µM)	–	–	–	–	–	–	–	–	–
O=C1N[C@H]2[C@H](O)[C@H](O)[C@@H](O)C[C@H]2c2cc3c(cc21)OCO3	4.8	4.9	6.6	–	–	9.6 (≈ 32.7 µM)	14 (≈ 47.7 µM)	5.7	12.7 (≈ 43.3 µM)	–	4.4 (≈ 15 µM)	–	–	–	–	25 (≈ 85.2 µM)	3	–	–	–
O=C1N[C@H]2[C@H](O)[C@H](O)[C@@H](O)C[C@H]2c2cc3c(c(O)c21)OCO3	3.6	5.1	3.9	1.4 (≈ 4.53 µM)	–	1.3 (≈ 4.2 µM)	2.2 (≈ 7.11 µM)	> 2	0.96 (≈ 3.1 µM)	3.6	2.5 (≈ 8.08 µM)	–	–	–	–	–	–	25	–	–
O=C1N[C@H]2[C@H](O)[C@H](O)[C@@H](O)C[C@@H]2c2cc3c(cc21)OCO3	5.9	5.6	7.5	0.25 (≈ 0.852 µM)	Not Active	0.037 (≈ 0.126 µM)	0.057 (≈ 0.194 µM)	5	0.039 (≈ 0.133 µM)	2	0.5 (≈ 1.7 µM)	–	–	–	–	–	–	–	–	–
O=C1N[C@H]2[C@H](O)[C@H](O)[C@@H](O)C[C@@H]2c2cc3c(c(O)c21)OCO3	3.3	5.6	> 8.5	–	Not Active	< 0.003	0.008 (≈ 0.0259 µM)	4.2	0.004 (≈ 0.0129 µM)	–	0.015 (≈ 0.0485 µM)	–	–	–	–	–	–	–	–	–
O=C1N[C@@H]2C(=C[C@H](O)[C@@H](O)[C@H]2O)c2cc3c(cc21)OCO3	6.3	4.9	5.6	0.15 (≈ 0.515 µM)	–	0.053 (≈ 0.182 µM)	0.042 (≈ 0.144 µM)	4.2	0.056 (≈ 0.192 µM)	5.5	0.059 (≈ 0.203 µM)	–	–	–	–	0.058 (≈ 0.199 µM)	4.5	–	–	–
O=C1N[C@H]2C=C[C@@H](O)[C@H](O)[C@@H]2c2cc3c(cc21)OCO3	–	–	–	–	Not Active	–	–	–	–	–	–	Not Active	Not Active	Not Active	Not Active	–	–	–	–	–
CC(=O)O[C@@H]1[C@@H](O)[C@@H](O)[C@@H]2NC(=O)c3cc4c(cc3[C@H]2[C@H]1O)OCO4 [LYCORICIDINE MONOACETATE]	2.1	3.3	4.3	5.5	Not Active	4.8	4.7	33.3	3.3	4.4	1.5	–	–	–	–	–	–	–	–	–
CC(=O)O[C@@H]1[C@@H](OC(C)=O)[C@H](O)[C@@H]2c3cc4c(cc3C(=O)N[C@H]2[C@@H]1OC(C)=O)OCO4	4.2	3.6	3.8	–	Not Active	2.2 (≈ 5.05 µM)	2.5 (≈ 5.74 µM)	> 20	4.5 (≈ 10.3 µM)	–	< 5	Not Active	–	–	–	–	–	–	–	–
O[C@H]1[C@H]2c3cc4c(cc3CN3CCC(=C[C@@H]1O)[C@H]23)OCO4 [LYCORINE]	4.6	8.2	7.3	0.93 (≈ 3.24 µM)	Not Active	0.28 (≈ 0.975 µM)	0.5 (≈ 1.74 µM)	10.4	0.33 (≈ 1.15 µM)	5.4	0.24 (≈ 0.835 µM)	–	–	–	–	–	–	–	–	–
O=C1N[C@H]2CC=C[C@H](O)[C@@H]2c2cc3c(cc21)OCO3	–	–	–	–	Not Active	–	–	–	–	–	–	Not Active	Not Active	Not Active	Not Active	–	–	–	–	–
O=C1N[C@@H]2C(=C[C@H](O)[C@@H](O)[C@H]2O)c2cc3c(c(O)c21)OCO3 [NARCICLASINE]	3.9	4.08	6.1	–	Not Active	0.006 (≈ 0.0195 µM)	0.0074 (≈ 0.0241 µM)	4	0.008 (≈ 0.026 µM)	–	0.015 (≈ 0.0488 µM)	Not Active	–	–	–	–	–	–	–	–
CC(=O)O[C@@H]1[C@@H](OC(C)=O)[C@H](OC(C)=O)[C@@H]2c3cc4c(cc3C(=O)N[C@H]2[C@@H]1OC(C)=O)OCO4	–	2.8	3.8	–	Not Active	262 (≈ 549 µM)	–	–	724 (≈ 1520 µM)	–	–	Not Active	–	Not Active	–	–	–	–	–	–
O=C1N[C@H]2C=C[C@@H](O)[C@H](OC3CCCCO3)[C@@H]2c2cc3c(cc21)OCO3 (stereo partly specified)	–	–	–	–	Not Active	–	–	–	–	–	–	Not Active	Not Active	Not Active	Not Active	–	–	–	–	–
CC(=O)O[C@@H]1[C@H](OC(C)=O)[C@@H](OC(C)=O)C=C2c3cc4c(cc3C(=O)N[C@H]21)OCO4 [LYCORICIDINE TRIACETATE]	–	–	–	–	Not Active	–	–	–	–	–	–	Not Active	Not Active	Not Active	Not Active	–	–	–	Not Active	–
CC(=O)Oc1c2c(cc3c1C(=O)N[C@H]1[C@H](OC(C)=O)[C@H](OC(C)=O)[C@@H](OC(C)=O)C[C@@H]31)OCO2	6.4	3.5	–	–	–	–	12 (≈ 25.1 µM)	–	8.1 (≈ 17 µM)	–	–	–	–	–	–	–	–	25	–	25
O=c1[nH]c2c(c3cc4c(cc13)OCO4)C[C@H](O)[C@@H](O)[C@H]2O	3.7	–	4.2	10 (≈ 34.3 µM)	Not Active	5.7 (≈ 19.6 µM)	7.2 (≈ 24.7 µM)	5.9	–	5	8.5 (≈ 29.2 µM)	–	–	–	Not Active	–	–	–	–	–
